Assay results from patent USRE34387E, “Method for restoring depleted purine nucleotide pools” (priority 1988, dated 1993).

Assays:
[1] = Serum urate concentrations after AICAriboside infusion; format: in vivo, adult mongrel dogs; details: following infusion of 8 mmol
Experimental: Animal Preparation--Seven adult mongrel dogs were anesthetized intramuscularly with 40 mg of morphine sulfate and intravenously with 80 mg/kg of chloralose, an endotraceal tube was inserted, and ventilation was maintained with an Emerson volume-cycled respirator and 100% oxygen. The heart was exposed through a left lateral thoracotomy, polyvinyl chloride catheters (3-mm outer diameter) were inserted into the left atrium and into the aorta through the right femoral artery, and a Statham TTQ electromagnetic flow meter probe was positioned around the ascending aorta. […] Aortic flow was measured with a Howell Instruments Series 1000 Flowmeter, and stroke volume and cardiac output were calculated from the aortic flow measurement. All hemodynamic data were monitored continuously throughout the course of the study. […]
After hemodynamic parameters had stabilized, regional myocardial blood flow was measured by injecting radioactively labled microspheres. […] Venous and arterial blood samples were also obtained at 42 min. of infusion, and regional myocardial blood flow was measured at 10 and 39 min. of AICAriboside infusion. […]
Other Methods--Serum urate was determined by the enzymatic spectrophotometric method as previously described in Liddle et al., J. Lab. […]

cardiovascular system = tested on: cardiovascular system; design: species or system adult mongrel dogs; details: dog, in vivo
Experimental: Animal Preparation--Seven adult mongrel dogs were anesthetized intramuscularly with 40 mg of morphine sulfate and intravenously with 80 mg/kg of chloralose, an endotraceal tube was inserted, and ventilation was maintained with an Emerson volume-cycled respirator and 100% oxygen. The heart was exposed through a left lateral thoracotomy, polyvinyl chloride catheters (3-mm outer diameter) were inserted into the left atrium and into the aorta through the right femoral artery, and a Statham TTQ electromagnetic flow meter probe was positioned around the ascending aorta. The aortic pressure catheter was connected to a Statham P23 Db transducer (Statham Instruments, Inc., Oxnard, Calif.) with the zero reference at the midchest level. Aortic flow was measured with a Howell Instruments Series 1000 Flowmeter, and stroke volume and cardiac output were calculated from the aortic flow measurement. All hemodynamic data were monitored continuously throughout the course of the study. In 5 of the animals, the skin of the left dorsal hindlimb was opened and the gastrocnemius muscle was identified for subsequent tissue sampling.
After hemodynamic parameters had stabilized, regional myocardial blood flow was measured by injecting radioactively labled microspheres. Tissue samples were obtained from the left ventricle and from the left gastrocnemius muscle. A venous blood sample was also obtained. AICAriboside (100 mM) was then infused into the left atrium at 1.9 ml/min. Repeat tissue samples were taken from the left ventricle at 15, 30 and 42 min. of infusion, and tissue samples were taken from the gastrocnemius muscle at 30 min. of infusion. Venous and arterial blood samples were also obtained at 42 min. of infusion, and regional myocardial blood flow was measured at 10 and 39 min. of AICAriboside infusion. AICAriboside infusion was terminated after 42 min., and tissue samples were taken from the left ventricle at 10, 20, 30 and 60 min. postinfusion and from the left gastrocnemius muscle at 2,22 and 60 min. postinfusion. Venous blood samples were obtained at 10, 30 and 60 min. after AICAriboside infusion. In 4 of the 7 dogs, 400 mM formate was infused intravenously at the rate of 1.9 ml/min. for 42 min. prior to and during AICAriboside infusion. These same animals also received 6 mg of folinic acid as an intravenous bolus 30 min. prior to and 15 min. after initiating AICAriboside infusion.

myocardium = experiment: Regional myocardial blood flow, coronary occlusion and 24 hr reperfusion; format: in vivo, dogs; details: any time point
Experimental: (§1) Catheters were placed in the left atrium and aorta, and a snare positioned around the left anterior descending coronary artery in 15 open-chest dogs. Regional myocardial blood flow was measured and transmural tissue samples were obtained using known techniques. Blood flow measurements and tissue samples were obtained prior to and just before release of a 12-minute coronary occlusion. The chest was closed and the animals allowed to awaken. Twenty-four hours later, the animals were anesthetized, the chest opened, blood flow measured, and tissue samples obtained. No hemodynamic measurements were made on the animals.
(§2) In seven animals, 200 mM AICAriboside (Sigma Chemical Co.) was infused into the left atrial catether at either 14 μmol/min (n=2) or 37 μmol/min (n=5) beginning with coronary occlusion and continuing for 24 hours. Eight control animals were infused with an equal volume of saline over 24 hours.
(§3) All comparisons between AICAriboside and saline treated animals were done by unpaired analyses.

postischemic myocardium = experiment: Nucleotide and creatine phosphate content in postischemic myocardium; format: in vivo, dogs
Experimental: as §1, §2
Nucleotide and creatine phosphate analyses were performed by high performance liquid chromatography on acid extracts of the tissue as previously described. Nucleotide analysis is described in Example 1, and creatine phosphate analysis is described in Juengling and Kammermeier, Anal. Biochem., 102, 358-361 (1980).
as §3

[2] = tested on: skeletal muscle (gastrocnemius); experiment: Purine metabolism in skeletal muscle during and after AICAriboside infusion
Cardiac muscle = experiment: Purine metabolism in normal cardiac muscle during and after AICAriboside infusion
[3] = endo, preocclusion (before infusion)
[4] = epi, preocclusion (before infusion)
[5] = before, during or after infusion, detection limit 3 nmol/g
[6] = skeletal muscle, infusion and up to 60 min thereafter
[7] = myocardial, throughout the study

Question: For `NC(=O)c1ncn([C@@H]2O[C@H](CO)[C@@H](O)[C@H]2O)c1N` [AICAriboside, 5-amino-4-imidazolecarboxamide riboside], which “mean serum urate concentration increase” value [1] is on record?
Answer: Its value is 3.7 fold.

Question: And the Heart rate (cardiovascular system)?
Answer: Its Heart rate is “not significantly altered”.

Question: What about the “aortic systolic and diastolic pressure” value (cardiovascular system) of the same molecule?
Answer: Its value is “not significantly altered”.

Question: And the cardiac output (cardiovascular system)?
Answer: The cardiac output was “not significantly altered”.

Question: What about the “epicardial and endocardial regional blood flow” value (cardiovascular system) of the same molecule?
Answer: The value was “not significantly altered”.

Question: What about the “regional flow versus saline group” value (myocardium) of the same molecule?
Answer: Its value is “no differences in regional flow at any time point”.

Question: What about the “GTP content versus saline” value (postischemic myocardium; 24 hours reperfusion, epicardium and endocardium, P<0.003) of the same molecule?
Answer: Its value is “greater in the AICAriboside group”.

Question: What about the “epicardial and endocardial ATP content versus saline” value (postischemic myocardium; 24 hours reperfusion, previously ischemic region, P<0.001) of the same molecule?
Answer: Its value is “greater in the AICAriboside group”.

Question: And the GTP content restoration (postischemic myocardium; 24 hours, saline 82% (epi), 78% (endo) of nonischemic)?
Answer: The GTP content restoration was “restored to nonischemic levels”.

Question: And the “ATP content increase after reperfusion” value (postischemic myocardium; endo, 24 hours, saline group 21%)?
Answer: The value was 63%.

Question: What about the ADP (postischemic myocardium; [3]) of the same molecule?
Answer: The ADP was 0.92 ± 0.03 μmol/g wet wt.

Question: And the AMP (postischemic myocardium; [3])?
Answer: The AMP was 0.066 ± 0.007 μmol/g wet wt.

Question: And the “CP (creatine phosphate)” value (postischemic myocardium; [3])?
Answer: Its value is 6.8 ± 0.7 μmol/g wet wt.

Question: And the CTP (postischemic myocardium; [3])?
Answer: Its CTP is 0.055 ± 0.001 μmol/g wet wt.

Question: What about the IMP (postischemic myocardium; [3]) of the same molecule?
Answer: The IMP was 0.004 ± 0.001 μmol/g wet wt.

Question: And the NAD (postischemic myocardium; [3])?
Answer: Its NAD is 0.058 ± 0.04 μmol/g wet wt.

Question: And the UTP (postischemic myocardium; [3])?
Answer: The UTP was 0.132 ± 0.004 μmol/g wet wt.

Question: What about the “ATP content increase after reperfusion” value (postischemic myocardium; epi, 24 hours, saline group 2%) of the same molecule?
Answer: Its value is 41%.

Question: And the ADP (postischemic myocardium; [4])?
Answer: Its ADP is 0.87 ± 0.03 μmol/g wet wt.

Question: And the AMP (postischemic myocardium; [4])?
Answer: Its AMP is 0.064 ± 0.016 μmol/g wet wt.

Question: What about the “CP (creatine phosphate)” value (postischemic myocardium; [4]) of the same molecule?
Answer: The value was 7.7 ± 0.6 μmol/g wet wt.

Question: And the IMP (postischemic myocardium; [4])?
Answer: Its IMP is 0.005 ± 0.002 μmol/g wet wt.

Question: And the NAD (postischemic myocardium; [4])?
Answer: The NAD was 0.060 ± 0.02 μmol/g wet wt.

Question: What about the UTP (postischemic myocardium; [4]) of the same molecule?
Answer: The UTP was 0.122 ± 0.005 μmol/g wet wt.

Question: And the “ATP percentage drop during ischemia versus saline” value (postischemic myocardium; occlusion)?
Answer: The value was “comparable in both groups”.

Question: What about the “AMP or ADP content versus saline” value (postischemic myocardium; postischemic region) of the same molecule?
Answer: Its value is “no detectable differences”.

Question: And the “CTP content versus saline” value (postischemic myocardium; postischemic region)?
Answer: Its value is “no statistically significant differences”.

Question: What about the “NAD+ content versus saline” value (postischemic myocardium; postischemic region) of the same molecule?
Answer: The value was “no statistically significant differences”.

Question: What about the “Total adenine nucleotide content versus saline” value (postischemic myocardium; postischemic region) of the same molecule?
Answer: Its value is “also greater in the AICAriboside group”.

Question: What about the “UTP content versus saline” value (postischemic myocardium; postischemic region) of the same molecule?
Answer: The value was “no statistically significant differences”.

Question: And the Adenylosuccinate in biopsies [2, 5]?
Answer: Its Adenylosuccinate in biopsies is “not detectable”.

Question: What about the “AICAriboside concentration after infusion was stopped” value ([2]; skeletal muscle) of the same molecule?
Answer: Its value is “fell rapidly in both tissues”.

Question: And the IMP content rise ([2]; skeletal muscle)?
Answer: Its IMP content rise is 6-7 fold.

Question: What about the creatine phosphate content ([2]; skeletal muscle, 10.6±0.5 μmol/g at beginning) of the same molecule?
Answer: The creatine phosphate content was “did not vary significantly”.

Question: And the “NAD+ content” value ([2]; skeletal muscle, did not vary throughout infusion)?
Answer: The value was 0.32 ± 0.04 µmol/g.

Question: And the Adenosine ([2]; skeletal muscle, during infusion)?
Answer: The Adenosine was “did not increase”.

Question: What about the hypoxanthine content [2, 6] of the same molecule?
Answer: The hypoxanthine content was “consistently elevated”.

Question: And the inosine content [2, 6]?
Answer: Its inosine content is “consistently elevated”.

Question: What about the “mean AICAriboside content of cardiac muscle, greater than that of skeletal muscle” value (Cardiac muscle; 30 min of infusion) of the same molecule?
Answer: The value was 66%.

Question: And the “uptake by myocardial cells” value (Cardiac muscle; Example 1)?
Answer: Its value is “taken up rapidly by myocardial cells”.

Question: What about the Adenylosuccinate in biopsies (Cardiac muscle; [5]) of the same molecule?
Answer: Its Adenylosuccinate in biopsies is “not detectable”.

Question: What about the “time of AICAR peak” value (Cardiac muscle; cardiac and skeletal muscle) of the same molecule?
Answer: Its value is “peaked minutes after AICAriboside infusion was stopped”.

Question: And the IMP content increase (Cardiac muscle; cardiac muscle)?
Answer: The IMP content increase was 3-4 fold.

Question: What about the “myocardial content of CTP” value (Cardiac muscle; cardiac muscle) of the same molecule?
Answer: Its value is “no detectable change”.

Question: What about the adenylate energy charge (Cardiac muscle; cardiac muscle, 0.929±0.003 before infusion) of the same molecule?
Answer: The adenylate energy charge was “did not vary during the course of the experiment”.

Question: And the creatine phosphate content (Cardiac muscle; cardiac muscle, 6.8±0.4 μmol/g at beginning)?
Answer: Its creatine phosphate content is “did not vary significantly”.

Question: And the “TAN (total adenine nucleotide)” value (Cardiac muscle; cardiac muscle, 20 min postinfusion)?
Answer: The value was 6.70 ± 0.10 μmol/g. wet weight.

Question: And the Adenosine (Cardiac muscle; cardiac muscle, during infusion)?
Answer: The Adenosine was “did not increase”.

Question: What about the “AICAriboside concentration after infusion was stopped” value (Cardiac muscle; cardiac muscle, rate of decline greater than in skeletal) of the same molecule?
Answer: The value was “fell rapidly in both tissues”.

Question: And the ADP change (Cardiac muscle; cardiac tissue, any time point)?
Answer: The ADP change was “did not change significantly at any time point”.

Question: What about the AMP change (Cardiac muscle; cardiac tissue, any time point) of the same molecule?
Answer: Its AMP change is “did not change significantly at any time point”.

Question: And the “ATP content (increase to)” value (Cardiac muscle; cardiac tissue, from 5.55±0.17, p<0.02)?
Answer: Its value is 6.07±0.17 μmol/g , wet weight.

Question: And the “accumulation of AICAriboside-TP” value (Cardiac muscle; cardiac versus skeletal muscle)?
Answer: Its value is “greater in cardiac muscle”.

Question: What about the “NAD+ content” value (Cardiac muscle; heart, did not vary throughout infusion) of the same molecule?
Answer: Its value is 0.64 ± 0.01 µmol/g.

Question: And the hypoxanthine content (Cardiac muscle; [7])?
Answer: The hypoxanthine content was “only minimally increased”.

Question: What about the inosine content (Cardiac muscle; [7]) of the same molecule?
Answer: The inosine content was “only minimally increased”.

Question: What about the distribution from plasma (Cardiac muscle; similar concentrations in plasma and myocardium) of the same molecule?
Answer: The distribution from plasma was “readily diffuses from plasma into the interstitial space and intracellular compartments”.
